# Results reported in patent US20240255506A1, “PAIRED-CELL PROFILING SYSTEMS FOR HIGH-THROUGHPUT SCREENING SYNCYTIUM FORMATION” (priority 2023, published 2024).
# Experiments:
# [1] = system: SARS-COV-2 spike-induced syncytium formation in A549-ACE2 cells; assay type: cell-based; settings: A549-ACE2-GFP1-10 receiver cells, HEK293T-GFP-11 sender cells expressing WT D614G spike; drugs added 3 h after seeding, imaged after 24 h; vs DMSO-treated control
# [2] = system: SARS-COV-2 spike-induced syncytium formation in Vero E6 cells; assay type: cell-based; settings: Vero E6-GFP1-10 receiver cells, HEK293T-GFP-11 sender cells expressing WT D614G spike; drugs added 3 h after seeding, imaged after 24 h; vs DMSO-treated control
# [3] = system: SARS-COV-2 D614G live virus; assay type: cell-based; settings: Vero E6 and Vero E6-TMPRSS2 GFP1-10/GFP11 cells; CPZ 16 μM, promethazine 12.5 μM, fluvoxamine 12.5 μM, 24 h
# SARS-COV-2 D614G virus = assay type: cell-based; settings: both cell lysate and supernatant samples after virus infection; Vero E6, Vero E6-TMPRSS2 and A549-ACE2 cells
# SARS-COV-2 D614G = settings: hamster, in vivo; for infectious SARS-COV-2 titer in lung tissues (plaque assay) / virus RdRp gene expression level in lung tissues: ip
smiles,measurement,setting,value
CC(CN1c2ccccc2Sc2ccccc21)N(C)C (stereo not shown) [promethazine],syncytium formation,[1],greatly impeded syncytium formation
same,syncytium formation,[2],greatly impeded syncytium formation
same,syncytium formation in SARS-COV-2 D614G-infected cells,[3],inhibited syncytium formation
same,expression levels of SARS-COV-2 RNA-dependent RNA polymerase (RdRp),SARS-COV-2 D614G virus,greatly reduced
CN(C)CCCN1c2ccccc2Sc2ccc(Cl)cc21 [chlorpromazine],syncytium formation,[1],greatly impeded syncytium formation
same,syncytium formation,[2],greatly impeded syncytium formation
same,syncytium formation in SARS-COV-2 D614G-infected cells,[3],inhibited syncytium formation
same,expression levels of SARS-COV-2 RNA-dependent RNA polymerase (RdRp),SARS-COV-2 D614G virus,greatly reduced
same,area of positivity of the SARS-COV-2 nucleocapsid protein in lung tissues,SARS-COV-2 D614G,reduced
same,body weight of the hamsters,SARS-COV-2 D614G,no significant change
same,syncytium-like multinucleated cells within SARS-COV-2 nucleocapsid-positively stained lung tissues,SARS-COV-2 D614G,less syncytium-like multinucleated cells were detected
same,infectious SARS-COV-2 titer in lung tissues (plaque assay),SARS-COV-2 D614G,reduced
same,virus RdRp gene expression level in lung tissues,SARS-COV-2 D614G,reduced
COCCCC/C(=N\OCCN)c1ccc(C(F)(F)F)cc1 [fluvoxamine],syncytium formation,[1],greatly impeded syncytium formation
same,syncytium formation,[2],greatly impeded syncytium formation
same,syncytium formation in SARS-COV-2 D614G-infected cells,[3],inhibited syncytium formation
same,expression levels of SARS-COV-2 RNA-dependent RNA polymerase (RdRp),SARS-COV-2 D614G virus,greatly reduced
same,area of positivity of the SARS-COV-2 nucleocapsid protein in lung tissues,SARS-COV-2 D614G,reduced
same,body weight of the hamsters,SARS-COV-2 D614G,no significant change
same,syncytium-like multinucleated cells within SARS-COV-2 nucleocapsid-positively stained lung tissues,SARS-COV-2 D614G,less syncytium-like multinucleated cells were detected
same,infectious SARS-COV-2 titer in lung tissues (plaque assay),SARS-COV-2 D614G,reduced
same,virus RdRp gene expression level in lung tissues,SARS-COV-2 D614G,reduced
